Laboratory results published in PMC7315563, “Bioactive fluorenes. Part III: 2,7-dichloro-9H-fluorene-based thiazolidinone and azetidinone analogues as anticancer and antimicrobial against multidrug resistant strains agents” (BMC Chemistry, 2020).
Converted amounts (≈) assume the structure as drawn.

Assays:
[1] = tested on: A549 human lung cancer cells; assay: cell viability assay (MTT); type: cell-based; details: 24 h; for viability at 1 µg/mL: read-out: Validity (%) for sample concentrations (µg/mL) 1; for viability at 10 µg/mL: read-out: Validity (%) for sample concentrations (µg/mL) 10; for viability at 31.25 µg/mL: read-out: Validity (%) for sample concentrations (µg/mL) 31.25; for viability at 62.5 µg/mL: 62.50 µg/mL, read-out: Validity (%) for sample concentrations (µg/mL) 62.50; for viability at 125 µg/mL: read-out: Validity (%) for sample concentrations (µg/mL) 125; for viability at 250 µg/mL: read-out: Validity (%) for sample concentrations (µg/mL) 250; for viability at 500 µg/mL: read-out: Validity (%) for sample concentrations (µg/mL) 500; for viability at 1000 µg/mL: read-out: Validity (%) for sample concentrations (µg/mL) 1000
Experimental: WI-38 normal lung fibroblast cells, A549 lung cancer cells, and MDA-MB-231 breast cancer cells were obtained from VACSERA—Cell Culture Unit, Cairo, Egypt. The cell lines were originally obtained from the American Tissue Culture Collection (ATCC). WI-38, A549, and MDA-MB-231 cell lines were cultured in RPMI-1640 medium supplemented with 10% inactivate fetal bovine serum (FBS) and 1% penicillin/streptomycin were bought (Gibco, Invitrogen, CA). WI-38, A549, and MDA-MB-231 cells were seeded into 96-well plates (at a density of 5000 cells/well). […] Cell viability was then assessed using the MTT assay (Sigma Aldrich, St. Louis, MO, USA), and the absorbance was read at 570 nm using an ELISA microplate reader (Molecular Devices, Downingtown, PA, USA).

[2] = tested on: WI-38 human normal fibroblast cells; assay: cell viability assay (MTT); type: cell-based; details: 24 h; for viability at 31.25 µg/mL: read-out: Validity (%) for sample concentrations (µg/mL) 31.25; for viability at 62.5 µg/mL: 62.50 µg/mL, read-out: Validity (%) for sample concentrations (µg/mL) 62.50; for viability at 125 µg/mL: read-out: Validity (%) for sample concentrations (µg/mL) 125; for viability at 250 µg/mL: read-out: Validity (%) for sample concentrations (µg/mL) 250; for viability at 500 µg/mL: read-out: Validity (%) for sample concentrations (µg/mL) 500
Experimental: (§1) WI-38 normal lung fibroblast cells, A549 lung cancer cells, and MDA-MB-231 breast cancer cells were obtained from VACSERA—Cell Culture Unit, Cairo, Egypt. The cell lines were originally obtained from the American Tissue Culture Collection (ATCC). WI-38, A549, and MDA-MB-231 cell lines were cultured in RPMI-1640 medium supplemented with 10% inactivate fetal bovine serum (FBS) and 1% penicillin/streptomycin were bought (Gibco, Invitrogen, CA). WI-38, A549, and MDA-MB-231 cells were seeded into 96-well plates (at a density of 5000 cells/well). On the following day, cells were treated with different concentrations (0, 1, 10, 31.25, 62.5, 125, 250, 500 µg/mL) of 16 fluorene derivatives in fresh medium and incubated for another 24 h. Cell viability was then assessed using the MTT assay (Sigma Aldrich, St. Louis, MO, USA), and the absorbance was read at 570 nm using an ELISA microplate reader (Molecular Devices, Downingtown, PA, USA).

[3] = tested on: MDA-MB-231 human breast cancer cells; assay: cell viability assay (MTT); type: cell-based; details: 24 h; for viability at 1 µg/mL: read-out: Validity (%) for sample concentrations (µg/mL) 1; for viability at 10 µg/mL: read-out: Validity (%) for sample concentrations (µg/mL) 10; for viability at 31.25 µg/mL: read-out: Validity (%) for sample concentrations (µg/mL) 31.25; for viability at 62.5 µg/mL: read-out: Validity (%) for sample concentrations (µg/mL) 62.5; for viability at 125 µg/mL: read-out: Validity (%) for sample concentrations (µg/mL) 125; for viability at 250 µg/mL: read-out: Validity (%) for sample concentrations (µg/mL) 250; for viability at 500 µg/mL: read-out: Validity (%) for sample concentrations (µg/mL) 500
Experimental: as §1

[4] = tested on: Staphylococcus aureus (S. aureus), multidrug resistant clinical isolate; assay: agar well diffusion assay; type: cell-based; details: Staphylococcus aureus; S. aureus; 500 µg/mL of tested compound; 24 h
Text: All microbial strains were kindly provided from the department of Medical Microbiology and Immunology faculty of Medicine Assiut University, these clinical isolates were obtained from clinical cases of infections admitted to Assiut University hospital as urinary tract infections, corneal ulcers, bacterial and fungal pneumonia, otomycosis, oral thrush and wound infections.
The clinical isolates used were multidrug resistant strains, they were resistant to β lactam (penicillin, amoxacillin, oxacillin), cephalosporins (cefazolin, cefaclor and cefepime) and macrolides (erythromycin and clarithromycin), they included Gram positive bacteria as Staphylococcus aureus (S. aureus), Methicillin-resistant Staphylococcus aureus (MRSA), Streptococcus pneumoniae (S. pneumoniae), and Gram negative bacteria as Escherichia coli (E. coli), Klebsiella pneumoniae (K. pneumoniae), Pseudomonas aeruginosa (P. aeruginosa), and Acinetobacter baumannii (A. baumannii). The fungal strains that were tested are Aspergillus flavus (A. flavus), A. niger (A. niger) and Candida albicans (C. albicans).
The antimicrobial activity of the fluorene derivatives was initially evaluated by agar well diffusion assay. Mueller–Hinton agar (CM0337) was poured into Petri dishes at 50–60 °C and left to solidify for 15 min. Subsequently, overnight microbial suspensions of tested strains was adjusted to turbidity of 0.5 McFarland Standard, which equals to 1–2 × 10^8 CFU/mL for bacteria and 1–5 × 10^6 for fungi. The microbial inoculums were then diluted in 1:100 ratio in case of bacteria and 1:10 ratio in case of fungi in order to get 1–5 × 10^5 CFU/mL. a sterile cotton swab was dipped into the adjusted microbial suspension and the Mueller–Hinton agar plates were inoculated by evenly streaking cotton swab over the agar medium. Then wells with a diameter of 0.5 cm were cut in the medium with a sterile cork borer. Stock solutions of the flourene derivatives were diluted in DMSO 1% to get 500 μg/mL concentrations. The tested flourene derivatives and controls (50 μL) were dispensed into the wells. The plates were incubated for 24 h at 37 °C for bacteria and C. albicans while at 25 °C for A. falvus and A. niger. The diameters of zones of inhibition (ZOI) around the wells were measured in mm. Following control agents were used: positive control agents—vancomycin (50 μg/mL) for Gram positive bacteria, gentamicin (10 μg/mL) (for Gram negative bacteria) and fluconazole 25 μg/mL for fungi and negative control agent is 1% DMSO.

Row | SMILES | IC50 [1] | IC50 [3] | melting point | IC50 [2] | viability at 1 µg/mL [1] | viability at 10 µg/mL [1] | viability at 31.25 µg/mL [1] | viability at 62.5 µg/mL [1] | viability at 125 µg/mL [1] | viability at 250 µg/mL [1] | viability at 500 µg/mL [1] | viability at 1000 µg/mL [1] | viability at 31.25 µg/mL [2] | viability at 62.5 µg/mL [2] | viability at 125 µg/mL [2] | viability at 250 µg/mL [2] | viability at 500 µg/mL [2] | viability at 1 µg/mL [3] | viability at 10 µg/mL [3] | viability at 31.25 µg/mL [3] | other results
1 | CN(C)c1ccc(C2SCC(=O)N2c2nc(-c3cc(Cl)cc4c3-c3ccc(Cl)cc3C4)cs2)cc1 (centres unmarked) [5e, 3-(4-(2,7-Dichloro-9H-fluoren-4-yl)thiazol-2-yl)-2-(4-(dimethylamino)phenyl)thiazolidin-4-one] | 847 µg/mL (≈ 1570 µM) | > 500 µg/mL | 94 to 96 °C | > 500 µg/mL | 93.4% | 90.2% | 85.6% | 77.3% | 72.2% | 65.7% | 62.2% | 48.9% | 92.4% | 85.7% | 74.4% | 69.3% | 62.9% | 97.3% | 96.3% | 93.6% | viability at 62.5 µg/mL [3]: 92.6%; viability at 125 µg/mL [3]: 85.5%; viability at 250 µg/mL [3]: 75.9%; viability at 500 µg/mL [3]: 73.7%
2 | O=C1CSC(c2ccccc2)N1c1nc(-c2cc(Cl)cc3c2-c2ccc(Cl)cc2C3)cs1 (centres unmarked) [5a, 3-(4-(2,7-Dichloro-9H-fluoren-4-yl)thiazol-2-yl)-2-phenylthiazolidin-4-one] | 413 µg/mL (≈ 834 µM) | > 500 µg/mL | 79 to 82 °C | > 500 µg/mL | 95.6% | 91.4% | 86.8% | 82.3% | 79.7% | 75.4% | 45.5% | 12.5% | 89.8% | 83.3% | 80.6% | 77.3% | 74.3% | 98.3% | 96.7% | 93.6% | zone of inhibition at 500 µg/mL [4]: 3 mm; viability at 62.5 µg/mL [3]: 86.1%; viability at 125 µg/mL [3]: 85.9%; viability at 250 µg/mL [3]: 82.5%; viability at 500 µg/mL [3]: 75.8%
3 | COc1ccc(C2SCC(=O)N2c2nc(-c3cc(Cl)cc4c3-c3ccc(Cl)cc3C4)cs2)cc1 (centres unmarked) [5b, 3-(4-(2,7-Dichloro-9H-fluoren-4-yl)thiazol-2-yl)-2-(4-methoxyphenyl)thiazolidin-4-one] | 402 µg/mL (≈ 765 µM) | > 500 µg/mL | 74 to 76 °C | > 500 µg/mL | 91.2% | 85.4% | 84% | 67.8% | 64.3% | 57.1% | 44.2% | 17.8% | 99.4% | 94.4% | 91.3% | 81.2% | 79% | 97.8% | 97.4% | 90.8% | zone of inhibition at 500 µg/mL [4]: 4 mm; viability at 62.5 µg/mL [3]: 88.6%; viability at 125 µg/mL [3]: 87.3%; viability at 250 µg/mL [3]: 83.6%; viability at 500 µg/mL [3]: 81.5%
4 | O=C1CSC(c2ccc([N+](=O)[O-])cc2)N1c1nc(-c2cc(Cl)cc3c2-c2ccc(Cl)cc2C3)cs1 (centres unmarked) [5f, 3-(4-(2,7-Dichloro-9H-fluoren-4-yl)thiazol-2-yl)-2-(4-nitrophenyl)thiazolidin-4-one] | 567 µg/mL (≈ 1050 µM) | > 500 µg/mL | 90 to 92 °C | > 500 µg/mL | 95% | 89.8% | 87% | 83.8% | 79.2% | 75.4% | 65.5% | 12.6% | 82.5% | 81.9% | 77% | 74.3% | 67.8% | 98.1% | 97.2% | 89% | viability at 62.5 µg/mL [3]: 84.7%; viability at 125 µg/mL [3]: 81%; viability at 250 µg/mL [3]: 79.6%; viability at 500 µg/mL [3]: 77.5%

More lines, main results first:

Row | IC50 [1] | IC50 [3] | melting point | SMILES | IC50 [2] | viability at 1 µg/mL [1] | viability at 10 µg/mL [1] | viability at 31.25 µg/mL [1] | viability at 62.5 µg/mL [1] | viability at 125 µg/mL [1] | viability at 250 µg/mL [1] | viability at 500 µg/mL [1] | viability at 1000 µg/mL [1] | viability at 31.25 µg/mL [2] | viability at 62.5 µg/mL [2] | viability at 125 µg/mL [2] | viability at 250 µg/mL [2] | viability at 500 µg/mL [2] | viability at 1 µg/mL [3] | viability at 10 µg/mL [3] | viability at 31.25 µg/mL [3] | other results
5 | 2.3 µg/mL (≈ 2.69 µM) | 40 µg/mL (≈ 46.8 µM) | – | CC(=O)O[C@H]1C(=O)[C@@]2(C)[C@H]([C@H](OC(=O)c3ccccc3)[C@]3(O)C[C@H](OC(=O)[C@H](O)[C@@H](NC(=O)c4ccccc4)c4ccccc4)C(C)=C1C3(C)C)[C@]1(OC(C)=O)CO[C@@H]1C[C@@H]2O [Taxol, reference compound] | 41 µg/mL (≈ 48 µM) | – | – | – | – | – | – | – | – | – | – | – | – | – | – | – | – | –
6 | 308 µg/mL (≈ 568 µM) | > 500 µg/mL | 125 to 127 °C | O=C(O)c1ccc(C2C(Cl)C(=O)N2c2nc(-c3cc(Cl)cc4c3-c3ccc(Cl)cc3C4)cs2)cc1 (centres unmarked) [6g, 4-(3-Chloro-1-(4-(2,7-dichloro-9H-fluoren-4-yl)thiazol-2-yl)-4-oxoazetidin-2-yl)benzoic acid] | 40 µg/mL (≈ 73.8 µM) | 94.5% | 90.1% | 86.9% | 73.5% | 68.9% | 63.1% | 18.4% | 14.4% | 73.9% | 42% | 37.4% | 35.7% | 30.6% | 96.7% | 93.9% | 91.2% | viability at 62.5 µg/mL [3]: 82.9%; viability at 125 µg/mL [3]: 71.1%; viability at 250 µg/mL [3]: 65.5%; viability at 500 µg/mL [3]: 55.6%
7 | 613 µg/mL (≈ 1220 µM) | 330 µg/mL (≈ 658 µM) | 165 to 167 °C | O=C1CSC(c2cccs2)N1c1nc(-c2cc(Cl)cc3c2-c2ccc(Cl)cc2C3)cs1 (centres unmarked) [5k, 3-(4-(2,7-Dichloro-9H-fluoren-4-yl)thiazol-2-yl)-2-(thiophen-2-yl)thiazolidin-4-one] | 288 µg/mL (≈ 574 µM) | 95.2% | 92.3% | 85.9% | 83.9% | 79.6% | 76.9% | 60.9% | 22.6% | 80.8% | 71.4% | 64.8% | 51.4% | 41.9% | 92.3% | 85.8% | 68.7% | viability at 62.5 µg/mL [3]: 60.8%; viability at 125 µg/mL [3]: 56.7%; viability at 250 µg/mL [3]: 50.6%; viability at 500 µg/mL [3]: 43%
